According to publication PMC7486399 (Nature Communications, 2020):
Values joined by “and” are separate entries in the source; they are usually repeats but may differ in a detail not shown here. Equal entries are not always repeated.

What was measured:
[1] = test system: A549-ACE2 cells; format: cell-based, human
[2] = test system: A549 cells; format: cell-based, human
[3] = test system: mixed culture of A549 and A549-ACE2 cells; format: cell-based, human; settings: AFM
[4] = test system: interaction between the S1 subunit and ACE2 receptor; assay: AFM competition binding: ACE2-derived peptides vs S1 subunit-ACE2 binding on model surface; settings: for binding probability (BP) with peptide (Fig. 4b) / reduction in the BP (S1-ACE2 complex formation): 250 ms contact time; for binding probability (BP) with peptide (Fig. 4b): mean, N ≥ 3, 0 µM BP: 22-44 10.8724, 22-57 8.6263, 22-44-g-351-357 10.6771, 351-357 8.65885, PEG tip 2.60417; for delta binding (change of binding probability, Fig. 4c): vs 0 µM; for decrease in the BP on purified receptor: AFM on purified ACE2 receptor; for 50% inhibitory concentration (IC50): S1-ACE2 binding by AFM, estimated from 1, 10, 100 µM; for reduction in the BP (S1-ACE2 complex formation): concentration not printed in the sentence (tested 1, 10, 100 µM)
[5] = test system: A549 cells; assay: AFM S1 binding probability on A549 cells before and after [22-57] peptide; format: cell-based, human; settings: for BP (Fig. 5a), 100 μM peptide: A549 cells, 100 μM [22–57]
[6] = test system: A549-ACE2 cells; assay: AFM S1 binding probability on A549-ACE2 cells before and after [22-57] peptide; format: cell-based, human; settings: for BP (Fig. 5a), 100 μM peptide: 100 μM [22–57]
[7] = 1 µM peptide, ddH2O control 27.2772
[8] = 10 µM peptide, ddH2O control -35.4337
[9] = 100 µM peptide, ddH2O control -21.9737

| Substance | decrease in the BP on living cells [3] | binding probability (BP) with peptide (Fig. 4b) ([4]; 1 µM peptide) | delta binding (change of binding probability, Fig. 4c) [4, 7] | binding probability (BP) with peptide (Fig. 4b) ([4]; 10 µM peptide) | delta binding (change of binding probability, Fig. 4c) [4, 8] | binding probability (BP) with peptide (Fig. 4b) ([4]; 100 µM peptide) | delta binding (change of binding probability, Fig. 4c) [4, 9] | decrease in the BP on purified receptor [4] | 50% inhibitory concentration (IC50) [4] | reduction in the BP (S1-ACE2 complex formation) [4] | further results |
| --- | --- | --- | --- | --- | --- | --- | --- | --- | --- | --- | --- |
| 9-O-acetyl-2-α-O-propargyl-SC [SA] |  |  |  |  |  |  |  |  |  |  | binding probability + SA (Fig. 3f) [1]: 12.6 and 8.7 and 9 and 10.4; binding frequency after SA injection ([1]; […], 9-O-acetyl-sialogycans, 1 mM): ≈ 10%; binding probability + SA (Fig. 3f) [2]: 4.4 and 4.6 and 7 and 7.2; binding frequency after SA injection ([2]; A549 cells, 9-O-acetyl-sialogycans, 1 mM): ~ 7% |
| [22–44]: ACE2-derived peptide fragment 22–44, N-terminal helix of ACE2 (sequence in Supplementary Fig. 9) | > 70% | 6.934 | -48.3738 | 4.232 | -79.2642 | 4.6224 | -75.9263 | > 70% | in the µM range | ~ 76% |  |
| [22–44–g–351–357]: ACE2-derived fragments 22–44 and 351–357 joined by a glycine residue (EEQAKTFLDKFNHEAEDLFYQSSGLGKGDFR) |  | 6.641 | -45.2583 | 4.915 | -63.4203 | 4.655 | -62.3402 |  |  |  | binding inhibition, result in words ([4]; compared with the other peptides): we did not notice any strong improvement in the binding inhibition |
| [22–57]: ACE2-derived peptide fragment 22–57, N-terminal helix of ACE2 (sequence in Supplementary Fig. 9) | > 70% | 6.706 | -31.3144 | 5.599 | -50.4102 | 4.167 | -74.5041 | > 70% | in the µM range | ~ 74% | change of BP after peptide injection ([5]; A549 cells (both cell types), 100 µM peptide): significant decrease of the BP on both cell types; BP (Fig. 5a), 100 μM peptide ([5]; replicate 1 (0 μM: 10.8)): 4.3; BP (Fig. 5a), 100 μM peptide ([5]; replicate 2 (0 μM: 9.7)): 4.1; BP (Fig. 5a), 100 μM peptide ([5]; replicate 3 (0 μM: 7.7)): 1.9; BP (Fig. 5a), 100 μM peptide ([6]; replicate 1 (0 μM: 17)): 9.7; BP (Fig. 5a), 100 μM peptide ([6]; replicate 2 (0 μM: 15.7)): 8.5; BP (Fig. 5a), 100 μM peptide ([6]; replicate 3 (0 μM: 29)): 4.4; BP (Fig. 5a), 100 μM peptide ([6]; replicate 4 (0 μM: 15.9)): 10.1; BP level after peptide injection ([6]; 100 µM peptide): reaching a level close to the one of the control cells |
| [351–357]: ACE2-derived peptide fragment 351–357, part of a hot binding spot (LGKGDFR; UniProt Q9BYF1 351-357, looked up, fragment) |  | 5.599 | -43.4556 | 6.3151 | -34.8403 | 5.339 | -54.9815 |  |  |  |  |
| cRGD |  |  |  |  |  |  |  |  |  |  | reduction of the binding frequency after cRGD injection ([1]; A549-ACE2 cells, cRGD 500 μM): 1–2%; binding probability + RGD (Fig. 3f) ([1]; S1 tip on A549-ACE2 cells after cRGD, 500 μM, 37 °C, individual data points): 14.1 and 9.9 and 20.6 and 14.7; binding probability + RGD (Fig. 3f) ([2]; S1 tip on A549 cells after cRGD, 500 μM, 37 °C, individual data points): 13.1 and 7.8 and 10.6 and 9.5 |
